Laboratory results published in ChEMBL document CHEMBL4665892, “Structural Basis for the Binding Mechanism of Human Serum Albumin Complexed with Cyclic Peptide Dalbavancin” (J Med Chem, 2020).

Test: Protein binding in human plasma
Format: ADME, cell-free
Settings: read-out: PPB (converted)

With `CCCCCCCCCC(=O)N[C@@H](Cc1c[nH]c2ccccc12)C(=O)N[C@H](CC(N)=O)C(=O)N[C@@H](CC(=O)O)C(=O)N[C@@H]1C(=O)NCC(=O)N[C@@H](CCCN)C(=O)N[C@@H](CC(=O)O)C(=O)N[C@H](C)C(=O)N[C@@H](CC(=O)O)C(=O)NCC(=O)N[C@H](CO)C(=O)N[C@@H]([C@H](C)CC(=O)O)C(=O)N[C@@H](CC(=O)c2ccccc2N)C(=O)O[C@@H]1C` the fraction unbound was 0.15.
